Test results: patent US20250051390A1, “NOVEL ADIPONECTIN-DERIVED PEPTOID DERIVATIVE AND USE THEREOF” (SEOUL NATIONAL UNIVERSITY HOSPITAL, priority 2021, published 2025)

How the values were obtained:
CYP2C19 = CYP2C19 (Homo sapiens, UniProt P33261); assay: CYP inhibition assay, CYP2C19; conditions: human liver microsomes 0.25 mg/ml, 10 μM, 15 minutes
Protocol: (§1) Metabolites of each CYP isoenzyme indicator drug produced through the reaction were analyzed by LC-MS/MS using the Shimadzu Nexera XR system and TSQ vantage (Thermo).

CYP3A4 = CYP3A4 (Homo sapiens, UniProt P08684); assay: CYP inhibition assay, CYP3A4; conditions: human liver microsomes 0.25 mg/ml, 10 μM, 15 minutes
Sequence of CYP3A4 (P08684 whole entry): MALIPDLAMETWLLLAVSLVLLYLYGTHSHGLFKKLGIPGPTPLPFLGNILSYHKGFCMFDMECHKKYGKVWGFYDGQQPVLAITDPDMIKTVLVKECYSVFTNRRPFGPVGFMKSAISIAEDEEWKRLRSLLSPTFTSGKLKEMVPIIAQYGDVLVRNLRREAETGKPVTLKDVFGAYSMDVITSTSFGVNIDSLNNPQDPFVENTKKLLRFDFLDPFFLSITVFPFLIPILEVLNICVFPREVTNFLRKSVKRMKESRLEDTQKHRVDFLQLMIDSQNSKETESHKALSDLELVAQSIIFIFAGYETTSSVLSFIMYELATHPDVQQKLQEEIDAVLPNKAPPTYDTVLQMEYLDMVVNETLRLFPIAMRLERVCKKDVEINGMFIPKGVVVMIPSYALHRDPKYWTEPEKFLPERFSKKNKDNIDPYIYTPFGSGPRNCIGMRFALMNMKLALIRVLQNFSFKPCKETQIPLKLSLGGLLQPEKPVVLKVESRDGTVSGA
Protocol: as §1

AMPK phosphorylation = AMPK phosphorylation activity in mouse adipocytes (Western blot); assay type: cell-based; conditions: 3T3-L1, 10 μM, 24 hours, Western blot; APN5 = 1.0
Protocol: There were confirmed effects of the peptoid derivative of the present disclosure on the expression and receptor activity of adiponectin in mouse adipocytes as a main adiponectin production site. A mouse adipocyte cell line 3T3-L1 was treated with each of the peptoid derivatives of the present disclosure at a concentration of 10 μM and cultured for 24 hours, and then cells were obtained. Thereafter, the protein was extracted and the effect of adiponectin on AMPK phosphorylation, which was responsible for the main downstream signaling, was confirmed by Western blot.

CYP1A2 = target: T1, CYP1A2 (Homo sapiens, UniProt P05177); assay: CYP inhibition assay, CYP1A2; conditions: human liver microsomes 0.25 mg/ml, 10 μM, 15 minutes
T1 sequence (P05177 1-516): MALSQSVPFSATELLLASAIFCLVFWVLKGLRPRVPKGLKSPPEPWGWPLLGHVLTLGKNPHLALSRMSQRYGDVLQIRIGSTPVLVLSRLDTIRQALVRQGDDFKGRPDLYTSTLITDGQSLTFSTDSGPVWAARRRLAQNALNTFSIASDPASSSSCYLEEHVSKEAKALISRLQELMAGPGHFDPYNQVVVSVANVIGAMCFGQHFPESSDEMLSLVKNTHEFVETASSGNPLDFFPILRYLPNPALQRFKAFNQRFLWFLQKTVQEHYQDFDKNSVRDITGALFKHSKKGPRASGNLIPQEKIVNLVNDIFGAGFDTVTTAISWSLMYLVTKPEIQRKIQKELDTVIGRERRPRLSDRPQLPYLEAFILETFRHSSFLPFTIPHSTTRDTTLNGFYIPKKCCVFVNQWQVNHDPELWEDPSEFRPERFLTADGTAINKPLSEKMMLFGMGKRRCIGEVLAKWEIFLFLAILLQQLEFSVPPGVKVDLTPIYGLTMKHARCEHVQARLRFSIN
Protocol: as §1

CYP2D6 = CYP2D6 (Homo sapiens, UniProt P10635); assay: CYP inhibition assay, CYP2D6; conditions: human liver microsomes 0.25 mg/ml, 10 μM, 15 minutes
Sequence of CYP2D6 (P10635 whole entry): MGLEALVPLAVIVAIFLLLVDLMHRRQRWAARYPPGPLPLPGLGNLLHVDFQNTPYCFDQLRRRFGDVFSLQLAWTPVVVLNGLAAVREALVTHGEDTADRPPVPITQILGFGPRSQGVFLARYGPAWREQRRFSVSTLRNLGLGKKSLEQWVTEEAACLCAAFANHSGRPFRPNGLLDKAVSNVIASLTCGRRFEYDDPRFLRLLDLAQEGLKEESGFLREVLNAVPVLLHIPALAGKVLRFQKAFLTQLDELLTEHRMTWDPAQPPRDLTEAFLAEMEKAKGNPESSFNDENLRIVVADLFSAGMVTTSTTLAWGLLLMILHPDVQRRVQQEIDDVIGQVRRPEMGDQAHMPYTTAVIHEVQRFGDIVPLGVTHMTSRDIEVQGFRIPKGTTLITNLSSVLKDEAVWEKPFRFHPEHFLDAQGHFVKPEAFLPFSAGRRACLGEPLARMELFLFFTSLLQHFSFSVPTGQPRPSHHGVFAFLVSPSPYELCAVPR
Protocol: as §1

Sequence of CYP2C19 (P33261 whole entry): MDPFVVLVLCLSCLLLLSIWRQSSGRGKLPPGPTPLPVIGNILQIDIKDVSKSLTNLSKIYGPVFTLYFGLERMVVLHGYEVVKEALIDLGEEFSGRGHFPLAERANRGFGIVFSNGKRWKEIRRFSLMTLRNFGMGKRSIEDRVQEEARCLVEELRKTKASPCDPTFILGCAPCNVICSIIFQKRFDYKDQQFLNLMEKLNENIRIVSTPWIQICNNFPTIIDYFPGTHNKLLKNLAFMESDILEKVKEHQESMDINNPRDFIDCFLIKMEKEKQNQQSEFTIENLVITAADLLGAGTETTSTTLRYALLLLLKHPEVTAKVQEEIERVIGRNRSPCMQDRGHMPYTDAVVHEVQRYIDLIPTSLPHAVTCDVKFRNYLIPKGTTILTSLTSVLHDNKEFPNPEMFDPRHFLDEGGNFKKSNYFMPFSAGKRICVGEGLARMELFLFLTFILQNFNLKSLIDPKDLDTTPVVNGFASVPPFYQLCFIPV

## CC(C)C[C@H](NC(=O)CN)C(=O)N[C@@H](Cc1ccc(O)cc1)C(=O)N[C@@H](Cc1ccc(O)cc1)C(=O)N[C@@H](Cc1ccccc1)C(=O)O [APN5, NH2-GLYYF-OH]
CYP2C19
  CYP inhibition (% of control activity) CYP2C19: 98.5 % of control activity
CYP3A4
  CYP inhibition (% of control activity) CYP3A4: 82.9 % of control activity
AMPK phosphorylation
  AMPK phosphorylation activity (fold change): 1.0 fold change
CYP1A2
  CYP inhibition (% of control activity) CYP1A2: 88.8 % of control activity
CYP2D6
  CYP inhibition (% of control activity) CYP2D6: 92.3 % of control activity
